Results taken from ChEMBL document CHEMBL1201862, “PubChem BioAssay data set” (2004).
Calls of active or inactive are those of the source.

Legend:
[1] = target: T1, Short transient receptor potential channel 4 (Mus musculus, UniProt Q9QUQ5); assay: potentiation of DAMGO-evoked TRPC4 calcium signal – cell-based, HEK293 TRPC4/mu-opioid, Fluo-4 calcium, EC20 DAMGO, dose response (AID 434941); assay type: functional
T1 sequence (Q9QUQ5 whole entry): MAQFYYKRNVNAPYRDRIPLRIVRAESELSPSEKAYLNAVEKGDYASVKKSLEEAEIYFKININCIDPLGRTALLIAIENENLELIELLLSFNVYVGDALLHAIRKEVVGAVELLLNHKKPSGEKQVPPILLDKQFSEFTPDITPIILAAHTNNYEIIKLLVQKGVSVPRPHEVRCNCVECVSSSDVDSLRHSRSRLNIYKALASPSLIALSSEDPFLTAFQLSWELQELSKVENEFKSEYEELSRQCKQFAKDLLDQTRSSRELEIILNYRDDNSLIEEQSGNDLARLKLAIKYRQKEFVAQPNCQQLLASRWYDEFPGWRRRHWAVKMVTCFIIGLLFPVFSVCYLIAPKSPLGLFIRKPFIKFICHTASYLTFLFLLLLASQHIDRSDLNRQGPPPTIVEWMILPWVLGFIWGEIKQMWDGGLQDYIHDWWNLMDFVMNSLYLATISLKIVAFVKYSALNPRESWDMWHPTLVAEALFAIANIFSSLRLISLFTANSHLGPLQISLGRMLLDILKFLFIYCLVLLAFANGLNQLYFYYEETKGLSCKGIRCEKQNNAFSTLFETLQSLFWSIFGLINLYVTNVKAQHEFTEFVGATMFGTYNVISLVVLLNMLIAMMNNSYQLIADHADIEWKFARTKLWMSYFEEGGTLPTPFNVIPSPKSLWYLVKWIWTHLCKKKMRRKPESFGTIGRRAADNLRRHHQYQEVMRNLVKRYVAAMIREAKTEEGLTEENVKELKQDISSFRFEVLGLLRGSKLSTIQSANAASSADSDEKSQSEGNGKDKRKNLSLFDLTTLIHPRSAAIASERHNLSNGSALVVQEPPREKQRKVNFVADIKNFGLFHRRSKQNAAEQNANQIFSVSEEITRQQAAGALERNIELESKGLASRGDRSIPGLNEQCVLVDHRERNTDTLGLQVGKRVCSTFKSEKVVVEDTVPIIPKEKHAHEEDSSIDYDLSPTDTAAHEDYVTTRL

[2] = target: T2, Mu-type opioid receptor (Homo sapiens, UniProt P35372); assay: mu opioid receptor activators, image-based, SAR follow-up (AID 2352); assay type: functional
T2 sequence (P35372 whole entry): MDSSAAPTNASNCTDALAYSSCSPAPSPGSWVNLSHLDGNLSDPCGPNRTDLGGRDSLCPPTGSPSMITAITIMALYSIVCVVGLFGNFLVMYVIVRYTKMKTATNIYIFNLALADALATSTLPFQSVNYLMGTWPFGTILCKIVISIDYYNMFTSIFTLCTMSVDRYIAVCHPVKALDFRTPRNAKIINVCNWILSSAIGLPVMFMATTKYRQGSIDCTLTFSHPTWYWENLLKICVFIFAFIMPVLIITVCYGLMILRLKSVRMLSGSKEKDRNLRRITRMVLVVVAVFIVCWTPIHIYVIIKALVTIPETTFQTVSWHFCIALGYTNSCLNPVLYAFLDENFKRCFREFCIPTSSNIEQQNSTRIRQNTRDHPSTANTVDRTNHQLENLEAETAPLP

[3] = target: T3, Delta-type opioid receptor (Homo sapiens, UniProt P41143); assay: DOR agonists, SAR follow-up, image-based (AID 2370); assay type: functional
T3 sequence (P41143 whole entry): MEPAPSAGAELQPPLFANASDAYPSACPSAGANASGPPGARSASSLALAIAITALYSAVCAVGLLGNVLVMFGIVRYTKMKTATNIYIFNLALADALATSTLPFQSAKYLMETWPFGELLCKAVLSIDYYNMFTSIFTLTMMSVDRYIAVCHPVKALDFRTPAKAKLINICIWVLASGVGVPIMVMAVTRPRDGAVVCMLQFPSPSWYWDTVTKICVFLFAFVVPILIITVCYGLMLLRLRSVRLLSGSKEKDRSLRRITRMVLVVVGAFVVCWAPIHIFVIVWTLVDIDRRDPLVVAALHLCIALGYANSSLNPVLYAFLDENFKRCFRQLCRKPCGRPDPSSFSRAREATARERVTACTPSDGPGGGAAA

[4] = target: T4, Kappa-type opioid receptor (Homo sapiens, UniProt P41145); assay: kappa opioid receptor blockers, image-based, SAR follow-up (AID 2348); assay type: functional
T4 sequence (P41145 whole entry): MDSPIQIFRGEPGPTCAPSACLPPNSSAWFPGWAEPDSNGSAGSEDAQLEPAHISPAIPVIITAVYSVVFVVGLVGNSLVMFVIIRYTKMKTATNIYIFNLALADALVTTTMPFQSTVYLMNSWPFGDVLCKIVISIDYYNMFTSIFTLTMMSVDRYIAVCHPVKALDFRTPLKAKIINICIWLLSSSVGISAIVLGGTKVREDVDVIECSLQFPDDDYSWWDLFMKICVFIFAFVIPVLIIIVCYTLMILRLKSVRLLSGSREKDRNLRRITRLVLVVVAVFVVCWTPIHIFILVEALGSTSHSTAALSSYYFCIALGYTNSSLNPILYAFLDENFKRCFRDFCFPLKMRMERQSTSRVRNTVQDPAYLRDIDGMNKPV

[5] = target: T2, Mu-type opioid receptor; assay: mu opioid receptor blockers – image-based, SAR follow-up (AID 2420); assay type: functional;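 note: compounds added before stimulation of receptor with agonist DAMGO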
[6] = target: T4, Kappa-type opioid receptor; assay: kappa opioid receptor activation potency – imaging, image-based, SAR follow-up (AID 2359); assay type: functional
[7] = target: T3, Delta-type opioid receptor; assay: delta opioid receptor blockers – image-based, SAR follow-up (AID 2357); assay type: functional
[8] = target: T4, Kappa-type opioid receptor; assay: kappa opioid receptor blockers, cell-based, luminescence, beta-arrestin, SAR follow-up (AID 2285); assay type: functional
[9] = target: Protein Rev (Human immunodeficiency virus type 1 group M subtype B (isolate HXB2)(HIV-1), UniProt P04618); assay: blockers of HIV Rev/RRE RNA complex – biochemical, fluorescence polarization, HIV-1, dose response (AID 434976); design: species or system Human immunodeficiency virus 1
Protein Rev, sequence (P04618 whole entry): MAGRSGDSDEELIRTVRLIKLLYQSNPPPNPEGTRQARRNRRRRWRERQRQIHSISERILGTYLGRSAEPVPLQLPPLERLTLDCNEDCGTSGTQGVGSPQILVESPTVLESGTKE

[10] = target: Female germline-specific tumor suppressor gld-1 (Caenorhabditis elegans, UniProt Q17339); assay: blockers of GLD-1/TGE RNA complex formation – biochemical, fluorescence polarization, C. elegans, dose response (AID 2802);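 note: fluorescence polarization of labeled TGE RNA bound by purified gld-1 protein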
Female germline-specific tumor suppressor gld-1, sequence (Q17339 whole entry): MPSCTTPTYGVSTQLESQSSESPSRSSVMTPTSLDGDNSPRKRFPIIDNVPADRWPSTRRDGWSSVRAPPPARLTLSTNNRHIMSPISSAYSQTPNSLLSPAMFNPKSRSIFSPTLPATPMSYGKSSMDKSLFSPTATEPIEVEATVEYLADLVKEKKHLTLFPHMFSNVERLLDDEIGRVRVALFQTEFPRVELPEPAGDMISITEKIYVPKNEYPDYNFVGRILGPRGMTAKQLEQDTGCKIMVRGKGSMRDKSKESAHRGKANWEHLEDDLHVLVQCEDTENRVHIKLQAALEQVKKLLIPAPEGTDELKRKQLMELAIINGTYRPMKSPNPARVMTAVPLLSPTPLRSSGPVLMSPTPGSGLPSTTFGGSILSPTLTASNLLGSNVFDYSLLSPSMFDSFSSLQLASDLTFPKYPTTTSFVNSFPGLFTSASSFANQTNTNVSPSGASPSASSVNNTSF

[11] = viability of PTEN-deleted HCT116 cells – cell-based, HCT116 PTEN knockout, dose response (AID 1047); assay type: functional;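 note: HCT116 colon tumor cells with PTEN knocked out; cells exposed to compound for 60 hours before readout; potency for loss of cell viability measured by luminescence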
[12] = viability of HCT116 lacking mutant beta-catenin – cell-based, human colon tumor, dose response (AID 1045); assay type: functional;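 note: HCT116 colon tumor cells with beta catenin knocked out; cells exposed to compound for 60 hours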
[13] = Luminescence Cell-Based Dose Retest to Confirm Inhibitors of Cancer Stem Cells. [Related pubchem assays (depositor defined):AID2717, AID2721]; assay type: functional; settings: Homo sapiens
[14] = target: Beta-galactosidase (Escherichia coli, UniProt Q8VNN2); assay: detection-enzyme interference by beta-gal modulators – biochemical, E. coli enzyme, set 3, artefact control for CCR6 antagonist project, dose response (AID 504712); assay type: functional
Beta-galactosidase, sequence (Q8VNN2 whole entry): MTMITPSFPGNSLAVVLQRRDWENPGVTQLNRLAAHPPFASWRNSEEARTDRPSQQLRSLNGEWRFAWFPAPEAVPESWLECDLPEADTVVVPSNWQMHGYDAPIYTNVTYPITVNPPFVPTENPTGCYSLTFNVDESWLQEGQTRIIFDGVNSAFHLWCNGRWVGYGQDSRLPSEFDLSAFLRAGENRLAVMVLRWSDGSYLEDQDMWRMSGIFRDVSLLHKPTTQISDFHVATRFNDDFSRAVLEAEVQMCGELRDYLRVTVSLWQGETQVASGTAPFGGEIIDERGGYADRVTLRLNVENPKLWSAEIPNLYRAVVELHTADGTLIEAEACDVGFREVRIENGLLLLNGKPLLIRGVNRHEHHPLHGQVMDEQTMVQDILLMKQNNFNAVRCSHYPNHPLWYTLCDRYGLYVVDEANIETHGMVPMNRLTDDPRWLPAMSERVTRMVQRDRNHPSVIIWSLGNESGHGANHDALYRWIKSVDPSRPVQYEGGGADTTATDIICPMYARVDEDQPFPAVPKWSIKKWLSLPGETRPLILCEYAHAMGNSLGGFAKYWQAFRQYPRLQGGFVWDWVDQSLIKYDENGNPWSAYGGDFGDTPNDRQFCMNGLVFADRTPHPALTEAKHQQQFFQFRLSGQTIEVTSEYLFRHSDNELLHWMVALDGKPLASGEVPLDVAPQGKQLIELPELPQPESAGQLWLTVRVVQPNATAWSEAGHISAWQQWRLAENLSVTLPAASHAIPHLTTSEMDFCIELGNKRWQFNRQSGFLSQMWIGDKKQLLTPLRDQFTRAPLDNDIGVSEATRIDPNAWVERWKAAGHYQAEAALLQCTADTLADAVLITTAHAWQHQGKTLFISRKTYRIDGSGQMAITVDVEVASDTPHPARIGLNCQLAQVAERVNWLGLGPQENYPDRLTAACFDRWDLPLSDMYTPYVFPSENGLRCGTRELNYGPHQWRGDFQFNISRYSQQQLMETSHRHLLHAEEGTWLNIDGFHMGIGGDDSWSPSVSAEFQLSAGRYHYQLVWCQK

[15] = target: Cytochrome P450 2C19 (Homo sapiens, UniProt P33261); assay: Cytochrome panel assay with activity outcomes. Panel member name: p450-cyp2c19 Compounds with AC50 equal or less than 10 uM are considered active; assay type: functional; settings: read-out: AC50
[16] = target: Heat shock protein HSP 90-alpha (Homo sapiens, UniProt P07900); assay type: functional, organism-based
[17] = tested on: INS1; assay: INS-1E survival protection against cytokine death – cell-based, luminescence, retest, dose response (AID 449756); assay type: functional; settings: Rattus norvegicus;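 note: cell death triggered by IL-1 beta plus TNF-alpha plus IFN-gamma mixture; protective hits raise ATP signal compared with cytokine alone wells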
[18] = target: Cytochrome P450 2C9 (Homo sapiens, UniProt P11712)
Cytochrome P450 2C9, sequence (P11712 whole entry): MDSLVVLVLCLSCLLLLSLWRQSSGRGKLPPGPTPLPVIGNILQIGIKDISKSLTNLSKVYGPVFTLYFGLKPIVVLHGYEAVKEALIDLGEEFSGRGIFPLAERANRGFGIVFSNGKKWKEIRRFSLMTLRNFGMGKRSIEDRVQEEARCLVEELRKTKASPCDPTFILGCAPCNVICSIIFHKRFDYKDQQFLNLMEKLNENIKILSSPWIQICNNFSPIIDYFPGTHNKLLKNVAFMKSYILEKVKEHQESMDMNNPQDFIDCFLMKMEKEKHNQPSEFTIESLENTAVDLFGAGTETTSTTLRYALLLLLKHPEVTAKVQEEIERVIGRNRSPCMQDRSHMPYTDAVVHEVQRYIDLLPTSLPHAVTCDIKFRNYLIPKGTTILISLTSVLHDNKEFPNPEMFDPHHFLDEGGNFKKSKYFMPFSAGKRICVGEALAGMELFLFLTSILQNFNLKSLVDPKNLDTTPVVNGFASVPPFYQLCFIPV

[19] = target: Large T antigen (Simian virus 40, UniProt P03070); assay type: functional, Betapolyomavirus macacae;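 note: Confirmatory-stage PubChem screen for compounds that inhibit SV40 T antigen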
Large T antigen, sequence (P03070 whole entry): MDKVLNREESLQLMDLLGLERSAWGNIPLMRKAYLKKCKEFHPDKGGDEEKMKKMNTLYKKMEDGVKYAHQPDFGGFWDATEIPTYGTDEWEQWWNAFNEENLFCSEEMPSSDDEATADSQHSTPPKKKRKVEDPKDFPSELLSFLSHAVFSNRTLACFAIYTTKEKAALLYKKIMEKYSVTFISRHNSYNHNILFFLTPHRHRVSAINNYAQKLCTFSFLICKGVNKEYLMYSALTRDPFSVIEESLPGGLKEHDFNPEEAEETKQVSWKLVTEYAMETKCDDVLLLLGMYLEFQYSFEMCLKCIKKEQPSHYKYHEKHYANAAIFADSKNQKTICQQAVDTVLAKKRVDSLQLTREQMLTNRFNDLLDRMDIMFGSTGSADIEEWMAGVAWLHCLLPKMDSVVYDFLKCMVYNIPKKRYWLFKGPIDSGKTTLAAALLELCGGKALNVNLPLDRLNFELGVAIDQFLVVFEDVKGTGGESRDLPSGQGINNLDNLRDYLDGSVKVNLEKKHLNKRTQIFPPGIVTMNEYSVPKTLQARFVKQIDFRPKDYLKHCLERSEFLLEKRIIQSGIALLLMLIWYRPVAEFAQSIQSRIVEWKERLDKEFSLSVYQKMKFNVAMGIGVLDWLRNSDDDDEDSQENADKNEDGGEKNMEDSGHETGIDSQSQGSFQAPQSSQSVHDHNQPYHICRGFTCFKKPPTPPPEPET

[20] = target: T5, Mannose-6-phosphate isomerase (Homo sapiens, UniProt P34949); assay: MPI inhibition at elevated mannose 6-phosphate – biochemical, fluorescence intensity, high mannose 6-phosphate, primary screen (AID 1220)
T5 sequence (P34949 whole entry): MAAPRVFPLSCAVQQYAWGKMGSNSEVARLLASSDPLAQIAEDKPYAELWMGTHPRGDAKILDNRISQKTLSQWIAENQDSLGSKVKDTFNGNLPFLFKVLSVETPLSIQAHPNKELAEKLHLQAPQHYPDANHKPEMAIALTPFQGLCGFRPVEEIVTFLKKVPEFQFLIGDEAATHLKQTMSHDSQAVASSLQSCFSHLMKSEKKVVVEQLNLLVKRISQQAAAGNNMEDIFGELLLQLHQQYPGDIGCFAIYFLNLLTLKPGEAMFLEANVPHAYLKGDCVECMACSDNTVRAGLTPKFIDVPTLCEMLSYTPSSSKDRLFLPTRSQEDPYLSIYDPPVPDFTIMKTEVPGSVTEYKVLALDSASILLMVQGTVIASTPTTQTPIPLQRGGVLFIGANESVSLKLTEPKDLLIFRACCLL

[21] = target: T5, Mannose-6-phosphate isomerase; assay: phosphomannose isomerase inhibition – biochemical, fluorescence intensity, confirmation (AID 1535)
[22] = target: Glucose-6-phosphate 1-dehydrogenase (Homo sapiens, UniProt P11413); assay: inhibition of Homo sapiens G6PD, dose series – biochemical, fluorescence, selectivity assay for P. falciparum G6PD inhibitor project, dose response (AID 504792); assay type: functional
[23] = target: Phosphomannomutase 2 (Homo sapiens, UniProt O15305); assay: Counter screen SAR assay for PMM2 inhibitors via a fluorescence intensity assay. [Related pubchem assays (depositor defined):AID1545, AID1574]
Phosphomannomutase 2, sequence (O15305 whole entry): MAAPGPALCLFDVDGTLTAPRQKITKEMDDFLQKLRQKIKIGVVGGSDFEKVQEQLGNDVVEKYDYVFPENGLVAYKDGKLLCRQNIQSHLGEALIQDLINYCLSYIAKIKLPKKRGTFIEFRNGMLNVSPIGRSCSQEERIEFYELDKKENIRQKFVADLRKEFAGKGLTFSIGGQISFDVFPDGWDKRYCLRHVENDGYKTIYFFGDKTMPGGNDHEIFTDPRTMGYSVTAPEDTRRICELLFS

[24] = target: Eukaryotic translation initiation factor 4E (Mus musculus, UniProt P63073); assay: blockers of eIF4G binding by eIF4E – biochemical, TR-FRET, dose response (AID 855); assay type: functional;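 note: potency for disrupting eIF4E binding to eIF4GI seen as loss of FRET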
Eukaryotic translation initiation factor 4E, sequence (P63073 whole entry): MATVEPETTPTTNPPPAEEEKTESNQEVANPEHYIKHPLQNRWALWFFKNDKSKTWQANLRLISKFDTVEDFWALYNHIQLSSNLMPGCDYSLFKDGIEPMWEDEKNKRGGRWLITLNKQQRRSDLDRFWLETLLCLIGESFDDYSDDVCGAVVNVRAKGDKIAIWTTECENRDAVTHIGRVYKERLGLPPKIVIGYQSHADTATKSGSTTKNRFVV

[25] = tested on: Vero; assay: cells; assay type: functional; settings: Chlorocebus sabaeus
[26] = target: G-protein coupled receptor 35 (Homo sapiens, UniProt Q9HC97); assay: inhibition of zaprinast-stimulated GPR35 beta-arrestin translocation – imaging, U2OS, beta-arrestin-GFP, zaprinast agonist, primary screen (AID 2058); assay type: functional;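 note: antagonist potency meaning inhibition of agonist-induced arrestin redistribution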
G-protein coupled receptor 35, sequence (Q9HC97 whole entry): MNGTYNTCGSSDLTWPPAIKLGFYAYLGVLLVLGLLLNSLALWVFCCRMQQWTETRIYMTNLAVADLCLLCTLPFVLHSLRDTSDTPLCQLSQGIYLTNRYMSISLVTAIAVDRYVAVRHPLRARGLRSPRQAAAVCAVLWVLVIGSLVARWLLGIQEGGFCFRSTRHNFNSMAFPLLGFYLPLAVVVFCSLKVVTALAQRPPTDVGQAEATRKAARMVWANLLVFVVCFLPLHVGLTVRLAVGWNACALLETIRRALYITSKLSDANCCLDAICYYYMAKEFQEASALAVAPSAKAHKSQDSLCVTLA

[27] = tested on: Streptococcus sp. 'group A'; assay: Streptococcus pyogenes SK(-)GAS viability under kanamycin – luminescence, BacTiterGlo, confirmation, counter-screen for streptokinase expression inhibitor project, dose response (AID 1900); assay type: functional, organism-based
[28] = target: T6, Streptokinase A (Streptococcus pyogenes serotype M1, UniProt P10520); assay: viability-normalized secreted streptokinase activity reduction – plasminogen activation absorbance, OD405, dose response (AID 1914); assay type: functional, Streptococcus pyogenes M1 GAS;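 note: secreted streptokinase activity via plasminogen activation per viability signal from cell pellet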
T6 sequence (P10520 whole entry): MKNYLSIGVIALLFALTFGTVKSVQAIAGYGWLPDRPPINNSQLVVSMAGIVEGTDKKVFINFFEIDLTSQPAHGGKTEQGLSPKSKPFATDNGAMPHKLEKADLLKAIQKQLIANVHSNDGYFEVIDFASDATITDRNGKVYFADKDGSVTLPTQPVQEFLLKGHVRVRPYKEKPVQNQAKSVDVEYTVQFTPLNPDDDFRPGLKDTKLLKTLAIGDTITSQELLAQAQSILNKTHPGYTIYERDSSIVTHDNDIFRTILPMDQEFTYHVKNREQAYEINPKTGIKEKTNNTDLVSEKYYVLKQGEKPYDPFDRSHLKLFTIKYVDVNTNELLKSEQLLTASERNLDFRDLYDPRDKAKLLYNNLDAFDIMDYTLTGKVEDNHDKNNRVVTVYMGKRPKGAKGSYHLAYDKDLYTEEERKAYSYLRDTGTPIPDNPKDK

[29] = tested on: Streptococcus; assay: GAS UMAA2166 growth inhibition – luminescence, BacTiterGlo, counter-screen for streptokinase expression inhibitor project, dose response (AID 1915); assay type: functional, organism-based;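 note: potency for reduction of bacterial viability or growth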

## CCSC1=N/C(=C\c2ccc(OC)cc2)C(=O)N1
[1]
  EC50: 3.35 µM (active)

## O=C(Cn1c(=O)c2cccn2c2cccnc21)NCCCN1CCN(c2ccc(F)cc2)CC1
[2]
  EC50: > 32 µM (inactive)
[3]
  EC50: > 32 µM (inactive)
[4]
  IC50: 15.2 µM (inactive)
[5]
  IC50: > 32 µM (inactive)
[6]
  EC50: > 32 µM (inactive)
[7]
  IC50: > 32 µM (inactive)
[8]
  IC50: > 10 µM (inactive)

## Cc1ccc(S(=O)(=O)Nc2cc3c(C(=O)Nc4ccccc4)c(C)oc3c3ccccc23)cc1
[9]
  IC50: > 75.4 µM (not active)
[10]
  IC50: 0.725 µM (active)

## Cc1cccc(NC(=S)N/N=C/c2ccc([N+](=O)[O-])s2)c1
[11]
  EC50: 3.06 µM (active)
[12]
  EC50: 1.95 µM (active)
[13]
  AC50: 1.84 µM (active)
[14]
  IC50: > 66.6 µM (inactive)
[15]
  AC50: 1.12 µM (inconclusive)
[16]
  AC50: 15.6 µM (active)
[17]
  AC50: 3.86 µM (active)
[18]
  AC50: 1.78 µM (inconclusive)

## O=c1c2ccccc2sn1-c1nccs1
[19]
  IC50: 12.9 µM (active)
[20]
  IC50: 42.5 µM (active)
[21]
  IC50: 2.65 µM (active)
[22]
  IC50: 11.3 µM (active)
[23]
  IC50: > 100 µM (inactive)
[24]
  IC50: 13.5 µM (active)
[25]
  CC50: > 25 µM (active)

## CCOc1ccc(N(C)c2ccc(/C=C3/SC(=S)NC3=O)cc2)cc1
[26]
  IC50: 0.701 µM (active)
[27]
  EC50: 5.43 µM (active)
[28]
  EC50: > 150 µM (not active)
[29]
  EC50: 20.7 µM (active)
